# According to US20240158446A1, “CYCLIC COMPOUND HAVING SELECTIVE INHIBITORY ACTION ON KRAS OVER HRAS AND NRAS” (CHUGAI SEIYAKU KABUSHIKI KAISHA, priority 2021, published 2024):
# Like-named read-outs stand apart in the source and are kept apart here. Where a SMILES comes first, the peptide text is derived from it. Bridges are numbered along the chain shown (N, C = ends). [ ]: non-standard residue; d: D form. The star is where a group is joined. hPhe(3,5-F2-4-CF3) = N[C@@H](CCc1cc(F)c(C(F)(F)F)c(F)c1)C(=O)O; hPhe(3-Cl-4-CF3) = N[C@@H](CCc1ccc(C(F)(F)F)c(Cl)c1)C(=O)O; NPrPhe(4-CF3) = CCCN[C@@H](Cc1ccc(C(F)(F)F)cc1)C(=O)O; NEtPhe(4-Me) = CCN[C@@H](Cc1ccc(C)cc1)C(=O)O; NMeGly(cPent) = CN[C@H](C(=O)O)C1CCCC1; Pro(4,4-F2) = O=C(O)[C@@H]1CC(F)(F)CN1; Hyp = O=C(O)[C@@H]1C[C@@H](O)CN1; NMeD = CN[C@@H](CC(=O)O)C(=O)O; NMeL = CN[C@@H](CC(C)C)C(=O)O; αMeS = C[C@](N)(CO)C(=O)O; Morpholide = C1CN(*)CCO1; Ac5c = NC1(C(=O)O)CCCC1; Aze = O=C(O)[C@@H]1CCN1; Sar = CNCC(=O)O
# Columns and labels:
# [1] = target: GDP-bound KRAS wild-type protein (Homo sapiens, UniProt P01116); test: Binding to KRAS by surface plasmon resonance (SPR), Single Cycle Kinetics; settings: GDP-bound KRAS wild-type protein, read-out: KRAS KD
# [2] = target: GDP-bound NRAS wild-type protein (Homo sapiens, UniProt P01111); test: Binding to NRAS by surface plasmon resonance (SPR), Single Cycle Kinetics; settings: for NRAS/KRAS (ratio of KD value for NRAS to KD value for KRAS) / NRAS/KRAS (ratio of KD value with respect to NRAS to KD value with respect to KRAS): SPR, GDP-bound NRAS wild-type protein vs GDP-bound KRAS wild-type protein
# [3] = target: GDP-bound HRAS wild-type protein (Homo sapiens, UniProt P01112); test: Binding to HRAS by surface plasmon resonance (SPR), Single Cycle Kinetics; settings: for HRAS/KRAS (ratio of KD value for HRAS to KD value for KRAS) / HRAS/KRAS (ratio of KD value with respect to HRAS to KD value with respect to KRAS): SPR, GDP-bound HRAS wild-type protein vs GDP-bound KRAS wild-type protein
# [4] = SPR, Single Cycle Kinetics, 1:1 binding model
# [5] = SPR Single Cycle Kinetics, 1:1 binding model
# GDP-bound NRAS wild-type protein, sequence (P01111 whole entry): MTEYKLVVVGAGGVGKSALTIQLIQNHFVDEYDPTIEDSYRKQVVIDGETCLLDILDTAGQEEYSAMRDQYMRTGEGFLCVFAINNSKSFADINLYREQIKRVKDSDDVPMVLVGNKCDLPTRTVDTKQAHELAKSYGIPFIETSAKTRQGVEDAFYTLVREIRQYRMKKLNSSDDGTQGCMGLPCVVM
# GDP-bound KRAS wild-type protein, sequence (P01116 whole entry): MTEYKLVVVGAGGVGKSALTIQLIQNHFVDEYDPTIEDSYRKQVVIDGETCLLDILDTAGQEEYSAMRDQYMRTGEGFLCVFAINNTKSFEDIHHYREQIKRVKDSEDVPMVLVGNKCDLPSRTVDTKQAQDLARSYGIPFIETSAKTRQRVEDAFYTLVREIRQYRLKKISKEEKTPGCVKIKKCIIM
# GDP-bound HRAS wild-type protein, sequence (P01112 whole entry): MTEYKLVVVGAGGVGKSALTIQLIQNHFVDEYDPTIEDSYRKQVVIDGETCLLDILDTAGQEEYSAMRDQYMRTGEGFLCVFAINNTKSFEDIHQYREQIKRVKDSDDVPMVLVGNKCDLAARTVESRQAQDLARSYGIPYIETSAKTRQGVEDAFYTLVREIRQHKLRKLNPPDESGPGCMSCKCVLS
SMILES,"Kd ([1]; SPR, Single Cycle Kinetics)",NRAS/KRAS (ratio of KD value for NRAS to KD value for KRAS) [2],HRAS/KRAS (ratio of KD value for HRAS to KD value for KRAS) [3],"Kd [1, 5]",further results
C#CC[C@H]1C(=O)N[C@@H]([C@@H](C)CC)C(=O)N(C)CC(=O)N(C)[C@H]2C/C=C\CCN(C2=O)[C@@H](Cc2ccc(C(F)(F)F)cc2)C(=O)N(C)CC(=O)N[C@@H](CCc2cc(F)c(C(F)(F)F)c(F)c2)C(=O)N2C[C@H](OCC)C[C@H]2C(=O)NC2(CC(C)(C)C2)C(=O)N(C)[C@@H](C2CCCC2)C(=O)N(C)[C@H](C(=O)N(C)CC)CC(=O)N1C [PP2073],0.078 nM,A (a compound having 10 or more and less than 20 is denoted as A),A (a compound having 10 or more and less than 20 is denoted as A),,
CCO[C@@H]1C[C@H]2C(=O)NC3(CCC3)C(=O)N(C)[C@@H](C3CCCC3)C(=O)N(C)[C@H](C(=O)N(CC)CC)CC(=O)N(C)[C@@H](CC(C)C)C(=O)N[C@@H]([C@@H](C)CC)C(=O)N(C)CC(=O)N(C)[C@H]3C/C=C\CCN(C3=O)[C@@H](Cc3ccc(C(F)(F)F)cc3)C(=O)N(C)CC(=O)N[C@@H](CCc3cc(F)c(C(F)(F)F)c(F)c3)C(=O)N2C1 [PP1306],,,,,"Kd [1, 4]: 0.2 nM; NRAS/KRAS (ratio of KD value for NRAS to KD value for KRAS) ([2]; KD ratio class): AA (a compound having 20 or more is denoted as AA); HRAS/KRAS (ratio of KD value for HRAS to KD value for KRAS) ([3]; KD ratio class): A (a compound having 10 or more and less than 20 is denoted as A)"
CCC(CC)[C@@H]1NC(=O)[C@H](CC(C)C)N(C)C(=O)C[C@@H](C(=O)N2CCOCC2)N(C)C(=O)[C@H](C2CCCC2)N(C)C(=O)C2(CCCC2)NC(=O)[C@@H]2CCCN2C(=O)[C@H](CCc2cc(F)c(C(F)(F)F)c(F)c2)NC(=O)CN(C)C(=O)[C@H](Cc2ccc(C(F)(F)F)cc2)N2CCCC[C@@H](C2=O)N(C)C(=O)CN(C)C1=O [PP0597],,,,0.33 nM,NRAS/KRAS (ratio of KD value with respect to NRAS to KD value with respect to KRAS) [2]: B (a compound having 3 or more and less than 10 is denoted as B); HRAS/KRAS (ratio of KD value with respect to HRAS to KD value with respect to KRAS) [3]: B (a compound having 3 or more and less than 10 is denoted as B)
CCC[C@H]1C(=O)N[C@@H]([C@@H](C)CC)C(=O)N(C)CC(=O)N(C)[C@H]2C/C=C\CCN(C2=O)[C@@H](Cc2ccc(C(F)(F)F)cc2)C(=O)N(C)CC(=O)N[C@@H](CCc2ccc(Cl)c(OC)c2)C(=O)N2C[C@H](OCC)C[C@H]2C(=O)NC2(CC(C)(C)C2)C(=O)N(C)[C@@H](C(CC)CC)C(=O)N(C)[C@H](C(=O)N(C)C)CC(=O)N1C [PP2789],,,,1 nM,"NRAS/KRAS (ratio of KD value with respect to GDP-bound NRAS wild-type protein to KD value with respect to KRAS) ([2]; SPR KD ratio NRAS/KRAS, class symbols): AA (a compound having 20 or more is denoted as AA); HRAS/KRAS (ratio of KD value with respect to GDP-bound HRAS wild-type protein to KD value with respect to KRAS) ([3]; SPR KD ratio HRAS/KRAS, class symbols): A (a compound having 10 or more and less than 20 is denoted as A)"
"CCO[C@@H]1C[C@H]2C(=O)NC3(CCC3)C(=O)N(C)[C@@H](C3CCCC3)C(=O)N(C)[C@H](C(=O)N(C)C)CC(=O)N(C)[C@@H](CC)C(=O)N[C@@H]([C@@H](C)CC)C(=O)N(C)CC(=O)N(C)[C@H]3C/C=C\CCN(C3=O)[C@@H](Cc3ccc(C(F)(F)F)cc3)C(=O)N(C)CC(=O)N[C@@H](CCc3ccc(C(F)(F)F)c(Cl)c3)C(=O)N2C1 [PP0978, (2S,8S,12R,14S,20S,23S,27S,30S,36S,38Z)-8-[2-[3-chloro-4-(trifluoromethyl)phenyl]ethyl]-20-cyclopentyl-12-ethoxy-27-ethyl-N,N,4,19,22,26,32,35-octamethyl-30-[(1S)-1-methylpropyl]-3,6,9,15,18,21,25,28,31,34,42-undecaoxo-2-[[4-(trifluoromethyl)phenyl]methyl]spiro[1,4,7,10,16,19,22,26,29,32,35-undecazatricyclo[34.5.1.0^10,14]dotetracont-38-ene-17,1′-cyclobutane]-23-carboxamide]",0.088 nM,A (a compound having 10 or more and less than 20 is denoted as A),B (a compound having 3 or more and less than 10 is denoted as B),,
CCO[C@@H]1C[C@H]2C(=O)NC3(CCC3)C(=O)N(C)[C@@H](C3CCCC3)C(=O)N(C)[C@H](C(=O)N(C)C)CC(=O)N(C)[C@@H](CC)C(=O)N[C@@H]([C@@H](C)CC)C(=O)N(C)CC(=O)N(C)[C@H]3CCCCN(C3=O)[C@@H](Cc3ccc(C(F)(F)F)cc3)C(=O)N(C)CC(=O)N[C@@H](CCc3c(F)c(F)c(C(F)(F)F)c(F)c3F)C(=O)N2C1 [PP0886],0.086 nM,C (A compound having a KD ratio of 0.1 or more and less than 3 is denoted as C),B (a compound having 3 or more and less than 10 is denoted as B),,
CCO[C@@H]1C[C@H]2C(=O)NC3(CCCC3)C(=O)N(C)[C@@H](C3CCCC3)C(=O)N(C)[C@H](C(=O)N(C)C)CC(=O)N(C)[C@@H](CC(C)C)C(=O)N[C@@H]([C@@H](C)CC)C(=O)N(C)CC(=O)N(C)[C@H]3C/C=C\CCN(C3=O)[C@@H](Cc3ccc(C(F)(F)F)cc3)C(=O)N(C)CC(=O)N[C@@H](CCc3cc(F)c(Cl)c(F)c3)C(=O)N2C1 [PP2269],0.38 nM,A (a compound having 10 or more and less than 20 is denoted as A),A (a compound having 10 or more and less than 20 is denoted as A),,
"CCCN1C(=O)[C@@H]2CCN2C(=O)CN(C)C(=O)[C@H]([C@@H](C)CC)NC(=O)[C@H](CC(C)C)N(C)C(=O)C[C@@H](C(=O)N2CCOCC2)N(C)C(=O)[C@H](C2CCCC2)N(C)C(=O)C2(CCCC2)NC(=O)[C@@H]2CC(F)(F)CN2C(=O)[C@H](CCc2ccc(C(F)(F)F)c(Cl)c2)NC(=O)CN(C)C(=O)[C@@H]1Cc1ccc(C(F)(F)F)cc1 [PP0408] ([NMeL]I[Sar][Aze][NPrPhe(4-CF3)][Sar][hPhe(3-Cl-4-CF3)][Pro(4,4-F2)][Ac5c][NMeGly(cPent)][NMeD]-Morpholide; lactam N-11)",,C (A compound having a KD ratio of 0.1 or more and less than 3 is denoted as C),B (a compound having 3 or more and less than 10 is denoted as B),0.094 nM,
"CCCN1C(=O)CN(C)C(=O)CN(C)C(=O)[C@H]([C@@H](C)CC)NC(=O)[C@H](CC(C)C)N(C)C(=O)C[C@@H](C(=O)N(C)C)N(C)C(=O)[C@H](C2CCCC2)N(C)C(=O)[C@](C)(COC)NC(=O)[C@@H]2CCCN2C(=O)[C@H](CCc2cc(F)c(C(F)(F)F)c(F)c2)NC(=O)CN(C)C(=O)[C@@H]1Cc1ccc(C(F)(F)F)cc1 [PP0741] ([NMeL]I[Sar][Sar][NPrPhe(4-CF3)][Sar][hPhe(3,5-F2-4-CF3)]P[αMeS](Me)[NMeGly(cPent)][NMeD]-NMe2; lactam N-11)",,,,0.28 nM,NRAS/KRAS (ratio of KD value with respect to NRAS to KD value with respect to KRAS) [2]: B (a compound having 3 or more and less than 10 is denoted as B); HRAS/KRAS (ratio of KD value with respect to HRAS to KD value with respect to KRAS) [3]: B (a compound having 3 or more and less than 10 is denoted as B)
CCO[C@@H]1C[C@H]2C(=O)NC3(CCC3)C(=O)N(C)[C@@H](C3CCCC3)C(=O)N(C)C(C(C)C)CC(=O)N(C)[C@@H](CC)C(=O)N[C@@H]([C@@H](C)CC)C(=O)N(C)CC(=O)N(C)[C@H]3C/C=C\CCN(C3=O)[C@@H](Cc3ccc(C(F)(F)F)cc3)C(=O)N(C)CC(=O)N[C@@H](CCc3cc(F)c(C(F)(F)F)c(F)c3)C(=O)N2C1 (stereo partly drawn) [PP1590],,,,,"Kd [1, 4]: 0.29 nM; NRAS/KRAS (ratio of KD value for NRAS to KD value for KRAS) ([2]; KD ratio class): A (a compound having 10 or more and less than 20 is denoted as A); HRAS/KRAS (ratio of KD value for HRAS to KD value for KRAS) ([3]; KD ratio class): B (a compound having 3 or more and less than 10 is denoted as B)"
CCO[C@@H]1C[C@H]2C(=O)NC3(CCCC3)C(=O)N(C)[C@@H](C3CCCC3)C(=O)N(C)[C@H](C(=O)N3CCOCC3)CC(=O)N(C)[C@@H](CC(C)C)C(=O)N[C@@H]([C@@H](C)CC)C(=O)N(C)CC(=O)N(C)CC(=O)N(CC)[C@@H](Cc3ccc(C)cc3)C(=O)N(C)CC(=O)N[C@@H](CCc3ccc(C(F)(F)F)c(Cl)c3)C(=O)N2C1 [PP0042] ([NMeL]I[Sar][Sar][NEtPhe(4-Me)][Sar][hPhe(3-Cl-4-CF3)][Hyp](Et)[Ac5c][NMeGly(cPent)][NMeD]-Morpholide; lactam N-11),,C (A compound having a KD ratio of 0.1 or more and less than 3 is denoted as C),C (A compound having a KD ratio of 0.1 or more and less than 3 is denoted as C),0.12 nM,
CCO[C@@H]1C[C@H]2C(=O)NC3(CC(C)(C)C3)C(=O)N(C)[C@@H](C(CC)CC)C(=O)N(C)[C@H](C(=O)N(C)C)CC(=O)N(C)[C@@H](C(C)C)C(=O)N[C@@H]([C@@H](C)CC)C(=O)N(C)CC(=O)N(C)[C@H]3C/C=C\CCN(C3=O)[C@@H](Cc3ccc(C(F)(F)F)cc3)C(=O)N(C)CC(=O)N[C@@H](CCc3ccc(Cl)c(Cl)c3)C(=O)N2C1 [PP2181],1.4 nM,AA (a compound having 20 or more is denoted as AA),A (a compound having 10 or more and less than 20 is denoted as A),,
